This note sets out measurements from ChEMBL document CHEMBL5465560, “Selectivity Literature for EUbOPEN Chemogenomic Library” (2024).

Experiment [1] has as its target T1, Serine/threonine-protein kinase 4 (Homo sapiens) (UniProt Q13043).
T1 sequence (whole entry): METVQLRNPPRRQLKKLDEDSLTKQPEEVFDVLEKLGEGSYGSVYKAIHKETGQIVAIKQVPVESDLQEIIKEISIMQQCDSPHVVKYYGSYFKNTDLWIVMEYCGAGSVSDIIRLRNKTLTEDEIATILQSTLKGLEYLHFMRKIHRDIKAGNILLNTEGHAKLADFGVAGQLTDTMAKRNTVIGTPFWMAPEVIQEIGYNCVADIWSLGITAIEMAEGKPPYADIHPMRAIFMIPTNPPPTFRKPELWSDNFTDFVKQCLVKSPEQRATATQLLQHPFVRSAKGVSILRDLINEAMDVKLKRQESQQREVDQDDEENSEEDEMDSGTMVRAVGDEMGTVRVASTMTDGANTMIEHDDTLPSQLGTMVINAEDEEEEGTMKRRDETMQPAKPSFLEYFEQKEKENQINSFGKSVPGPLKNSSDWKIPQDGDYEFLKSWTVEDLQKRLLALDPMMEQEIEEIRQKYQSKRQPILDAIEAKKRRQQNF
Nature of the experiment: Selectivity interaction (Kinase panel (Z-LYTE Assay)) EUB0001632a STK4. The conditions noted are these: at 10 µM.

The target of experiment [2] is Microtubule-associated serine/threonine-protein kinase 1 (Homo sapiens) (UniProt Q9Y2H9). Put plainly: Selectivity interaction (KinomeScan (DiscoverX)) EUB0000595a MAST1. As to conditions: at 10 µM.
Experiment [3] concerns the target Phosphatidylinositol 4-phosphate 5-kinase type-1 alpha (Homo sapiens) (UniProt Q99755). The conditions noted are these: at 10 µM.
The subject of experiment [4] is Leucine-rich repeat serine/threonine-protein kinase 2 (Homo sapiens), Q5S007 [G2019S]. As to conditions: at 10 µM.
Experiment [5] addresses Tyrosine-protein kinase Lck (Homo sapiens, UniProt P06239). As to conditions: at 3 µM.
In experiment [6] the target is Serine/threonine-protein kinase 24 (Homo sapiens) (UniProt Q9Y6E0). Nature of the experiment: Selectivity interaction (ActivX KiNativ screen (kinase selectivity in THP-1 cell lysates)) EUB0000639a STK24. The conditions noted are these: lysate, at 0.01 µM. The experiment is classed as subcellular.
The target of experiment [7] is Serine/threonine-protein kinase WNK2 (Homo sapiens) (UniProt Q9Y3S1). Nature of the experiment: Selectivity interaction (ActivX KiNativ screen (kinase selectivity in THP-1 cell lysates)) EUB0000639a WNK2. In kind it is subcellular. As to conditions: lysate, at 5 µM.
The target of experiment [8] is T2, Dual specificity mitogen-activated protein kinase kinase 6 (Homo sapiens) (UniProt P52564).
T2 sequence (whole entry): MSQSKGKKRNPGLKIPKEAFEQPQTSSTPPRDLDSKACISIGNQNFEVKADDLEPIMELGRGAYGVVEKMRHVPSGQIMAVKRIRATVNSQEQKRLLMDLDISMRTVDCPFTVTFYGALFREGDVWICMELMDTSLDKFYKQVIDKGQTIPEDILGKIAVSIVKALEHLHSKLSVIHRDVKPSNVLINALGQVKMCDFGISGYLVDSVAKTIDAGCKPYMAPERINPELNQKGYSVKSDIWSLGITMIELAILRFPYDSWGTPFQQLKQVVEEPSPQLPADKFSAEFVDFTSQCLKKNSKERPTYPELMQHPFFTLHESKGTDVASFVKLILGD
Put plainly: Selectivity interaction (Kinase panel (Invitrogen)) EUB0000639a MAP2K6. As to conditions: at 200 nM.

Experiment [9] addresses Cyclin-dependent kinase 14 (Homo sapiens) (UniProt O94921). Nature of the experiment: Selectivity interaction (KinomeScan (DiscoverX)) EUB0001049a CDK14. The conditions noted are these: at 1 µM.
In experiment [10] the target is T3, Dual specificity mitogen-activated protein kinase kinase 5 (Homo sapiens) (UniProt Q13163).
T3 sequence (whole entry): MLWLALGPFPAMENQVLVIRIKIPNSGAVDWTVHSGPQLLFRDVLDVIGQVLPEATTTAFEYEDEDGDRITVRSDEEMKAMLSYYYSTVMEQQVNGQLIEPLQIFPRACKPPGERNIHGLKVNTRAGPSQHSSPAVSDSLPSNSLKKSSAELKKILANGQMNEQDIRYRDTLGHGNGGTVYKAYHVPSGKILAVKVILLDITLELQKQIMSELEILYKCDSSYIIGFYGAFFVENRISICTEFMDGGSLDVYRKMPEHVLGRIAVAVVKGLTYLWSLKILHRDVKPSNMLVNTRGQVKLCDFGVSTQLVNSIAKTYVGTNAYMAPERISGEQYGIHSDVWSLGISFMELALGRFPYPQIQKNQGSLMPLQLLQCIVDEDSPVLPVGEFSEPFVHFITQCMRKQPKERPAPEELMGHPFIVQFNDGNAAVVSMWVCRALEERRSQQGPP
Put plainly: Selectivity interaction (KinomeScan (DiscoverX)) EUB0000655a MAP2K5. As to conditions: at 10 µM.

Experiment [11] addresses cAMP-dependent protein kinase catalytic subunit beta (Homo sapiens) (UniProt P22694). Nature of the experiment: Selectivity interaction (KinomeScan (DiscoverX)) EUB0000618a PRKACB. As to conditions: at 10 µM.
Experiment [12] has as its target Protein arginine N-methyltransferase 6 (Homo sapiens, UniProt Q96LA8). Put plainly: Selectivity interaction (Methyltransferase screen (radiometric assays, panel of 8 PRMTs, 21 protein lysine methyltransferases, 3 DNA methyltransferases, and one RNA methyltransferase)) EUB0000272b PRMT6.
In experiment [13] the target is Bromodomain-containing protein 4 (Homo sapiens, UniProt O60885). Nature of the experiment: Selectivity interaction (Human bromodomain panel (DSF assay)) EUB0000233b BRD4. For orientation: In DSF a fluorescence change marks the thermal transition of the protein.
In experiment [14] the target is T4, Dual specificity tyrosine-phosphorylation-regulated kinase 2 (Homo sapiens) (UniProt Q92630).
T4 sequence (whole entry): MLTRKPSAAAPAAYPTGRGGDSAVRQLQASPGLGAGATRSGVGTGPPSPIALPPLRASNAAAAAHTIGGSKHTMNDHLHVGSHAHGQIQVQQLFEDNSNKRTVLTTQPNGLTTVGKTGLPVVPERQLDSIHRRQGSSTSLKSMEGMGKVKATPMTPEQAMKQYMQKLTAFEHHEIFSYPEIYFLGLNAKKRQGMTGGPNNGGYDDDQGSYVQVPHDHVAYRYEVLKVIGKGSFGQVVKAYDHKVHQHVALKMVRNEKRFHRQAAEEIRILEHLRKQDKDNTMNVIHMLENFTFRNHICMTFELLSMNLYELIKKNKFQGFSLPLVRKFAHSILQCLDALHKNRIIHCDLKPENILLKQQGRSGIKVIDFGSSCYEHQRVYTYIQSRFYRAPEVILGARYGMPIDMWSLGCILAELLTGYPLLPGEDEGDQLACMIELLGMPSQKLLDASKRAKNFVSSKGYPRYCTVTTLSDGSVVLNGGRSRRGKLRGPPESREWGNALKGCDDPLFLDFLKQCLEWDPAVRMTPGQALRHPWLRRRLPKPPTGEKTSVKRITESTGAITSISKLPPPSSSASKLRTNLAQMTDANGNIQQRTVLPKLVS
Put plainly: Selectivity interaction (KinomeScan (DiscoverX)) EUB0001079a DYRK2. The conditions noted are these: at 1 µM.

The target in experiment [15] is Serine/threonine-protein kinase PAK 2 (Homo sapiens) (UniProt Q13177). Put plainly: Selectivity interaction (KinomeScan (DiscoverX)) EUB0001079a PAK2. The conditions noted are these: at 1 µM.

Structures are written as SMILES.

Protein arginine N-methyltransferase 6, sequence (Q96LA8 whole entry, looked up): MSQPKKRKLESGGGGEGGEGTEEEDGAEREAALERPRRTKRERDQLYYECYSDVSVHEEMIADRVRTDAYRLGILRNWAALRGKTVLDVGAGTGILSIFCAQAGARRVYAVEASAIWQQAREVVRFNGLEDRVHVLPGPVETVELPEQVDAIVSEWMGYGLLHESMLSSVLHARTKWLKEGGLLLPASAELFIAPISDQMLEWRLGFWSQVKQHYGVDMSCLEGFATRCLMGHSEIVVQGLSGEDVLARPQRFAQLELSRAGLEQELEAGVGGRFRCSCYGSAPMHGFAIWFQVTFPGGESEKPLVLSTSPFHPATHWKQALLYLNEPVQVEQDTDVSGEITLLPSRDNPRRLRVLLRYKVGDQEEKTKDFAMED
Phosphatidylinositol 4-phosphate 5-kinase type-1 alpha (Homo sapiens), sequence (Q99755 whole entry): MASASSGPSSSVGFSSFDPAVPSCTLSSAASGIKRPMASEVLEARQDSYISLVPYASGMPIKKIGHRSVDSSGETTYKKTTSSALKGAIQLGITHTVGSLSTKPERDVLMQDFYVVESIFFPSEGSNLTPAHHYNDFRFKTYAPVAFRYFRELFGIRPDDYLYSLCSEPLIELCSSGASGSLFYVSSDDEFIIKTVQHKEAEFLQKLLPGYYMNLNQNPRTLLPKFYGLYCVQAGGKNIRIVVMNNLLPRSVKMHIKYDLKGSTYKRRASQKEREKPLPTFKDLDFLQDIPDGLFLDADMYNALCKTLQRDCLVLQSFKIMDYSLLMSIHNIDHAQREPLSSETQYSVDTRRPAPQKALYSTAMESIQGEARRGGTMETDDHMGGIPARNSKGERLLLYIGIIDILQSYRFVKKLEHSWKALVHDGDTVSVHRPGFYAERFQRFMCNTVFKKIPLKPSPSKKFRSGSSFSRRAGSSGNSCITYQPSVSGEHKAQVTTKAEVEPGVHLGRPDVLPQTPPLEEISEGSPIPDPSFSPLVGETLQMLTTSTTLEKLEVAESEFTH
Tyrosine-protein kinase Lck, sequence (P06239 2-509 limits assumed): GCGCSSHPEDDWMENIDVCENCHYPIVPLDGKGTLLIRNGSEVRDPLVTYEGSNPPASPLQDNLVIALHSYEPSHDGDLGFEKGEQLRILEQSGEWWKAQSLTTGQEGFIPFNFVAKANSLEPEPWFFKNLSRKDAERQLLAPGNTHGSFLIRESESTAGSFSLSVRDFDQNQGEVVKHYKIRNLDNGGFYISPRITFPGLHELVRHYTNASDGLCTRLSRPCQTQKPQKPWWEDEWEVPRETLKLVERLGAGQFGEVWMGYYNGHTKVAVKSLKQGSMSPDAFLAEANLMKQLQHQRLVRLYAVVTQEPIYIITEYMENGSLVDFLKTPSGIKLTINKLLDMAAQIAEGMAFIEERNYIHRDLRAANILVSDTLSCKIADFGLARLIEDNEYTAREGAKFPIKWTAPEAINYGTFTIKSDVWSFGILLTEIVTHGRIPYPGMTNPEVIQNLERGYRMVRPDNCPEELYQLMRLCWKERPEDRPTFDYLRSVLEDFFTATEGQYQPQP
Serine/threonine-protein kinase 24 (Homo sapiens), sequence (Q9Y6E0 whole entry, looked up): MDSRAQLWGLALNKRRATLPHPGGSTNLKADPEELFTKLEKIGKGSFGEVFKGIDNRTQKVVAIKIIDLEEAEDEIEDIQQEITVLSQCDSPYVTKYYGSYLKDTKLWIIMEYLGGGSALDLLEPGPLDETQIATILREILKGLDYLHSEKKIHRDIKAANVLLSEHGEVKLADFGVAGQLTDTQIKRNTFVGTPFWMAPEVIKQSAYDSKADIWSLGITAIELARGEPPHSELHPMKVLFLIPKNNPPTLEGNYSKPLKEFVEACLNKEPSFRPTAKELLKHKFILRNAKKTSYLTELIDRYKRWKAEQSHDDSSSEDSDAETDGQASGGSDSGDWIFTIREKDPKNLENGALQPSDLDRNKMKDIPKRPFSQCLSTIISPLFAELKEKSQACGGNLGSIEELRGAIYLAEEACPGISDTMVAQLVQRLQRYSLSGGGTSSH
Cyclin-dependent kinase 14 (Homo sapiens), sequence (O94921 whole entry): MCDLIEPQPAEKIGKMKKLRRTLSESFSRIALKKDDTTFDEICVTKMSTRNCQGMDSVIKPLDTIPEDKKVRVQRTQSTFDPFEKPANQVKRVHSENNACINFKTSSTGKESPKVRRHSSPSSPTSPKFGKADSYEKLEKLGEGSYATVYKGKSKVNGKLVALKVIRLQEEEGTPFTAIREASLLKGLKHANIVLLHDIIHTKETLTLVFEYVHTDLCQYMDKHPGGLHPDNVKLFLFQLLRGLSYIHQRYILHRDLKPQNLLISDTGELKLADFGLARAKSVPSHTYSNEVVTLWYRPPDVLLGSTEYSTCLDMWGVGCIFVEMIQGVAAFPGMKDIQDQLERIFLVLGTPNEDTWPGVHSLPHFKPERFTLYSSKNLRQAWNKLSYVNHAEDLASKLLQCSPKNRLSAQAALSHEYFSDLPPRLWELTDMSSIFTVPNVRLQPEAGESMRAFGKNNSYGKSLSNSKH
Serine/threonine-protein kinase PAK 2 (Homo sapiens), sequence (Q13177 whole entry): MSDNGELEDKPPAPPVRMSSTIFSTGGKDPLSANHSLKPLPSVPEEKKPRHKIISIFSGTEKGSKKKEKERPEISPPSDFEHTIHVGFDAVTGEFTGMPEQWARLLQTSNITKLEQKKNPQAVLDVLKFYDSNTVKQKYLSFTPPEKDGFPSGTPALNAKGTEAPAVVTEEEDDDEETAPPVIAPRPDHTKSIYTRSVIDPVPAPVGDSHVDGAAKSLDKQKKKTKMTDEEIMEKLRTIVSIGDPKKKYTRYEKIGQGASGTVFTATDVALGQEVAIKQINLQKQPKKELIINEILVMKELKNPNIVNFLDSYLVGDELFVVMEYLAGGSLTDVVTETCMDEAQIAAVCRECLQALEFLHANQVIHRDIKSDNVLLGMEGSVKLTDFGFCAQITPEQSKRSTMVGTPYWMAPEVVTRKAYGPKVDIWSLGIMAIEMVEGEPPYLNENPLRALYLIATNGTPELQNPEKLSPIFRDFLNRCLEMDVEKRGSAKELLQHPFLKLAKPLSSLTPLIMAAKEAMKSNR
Microtubule-associated serine/threonine-protein kinase 1 (Homo sapiens), sequence (Q9Y2H9 whole entry, looked up): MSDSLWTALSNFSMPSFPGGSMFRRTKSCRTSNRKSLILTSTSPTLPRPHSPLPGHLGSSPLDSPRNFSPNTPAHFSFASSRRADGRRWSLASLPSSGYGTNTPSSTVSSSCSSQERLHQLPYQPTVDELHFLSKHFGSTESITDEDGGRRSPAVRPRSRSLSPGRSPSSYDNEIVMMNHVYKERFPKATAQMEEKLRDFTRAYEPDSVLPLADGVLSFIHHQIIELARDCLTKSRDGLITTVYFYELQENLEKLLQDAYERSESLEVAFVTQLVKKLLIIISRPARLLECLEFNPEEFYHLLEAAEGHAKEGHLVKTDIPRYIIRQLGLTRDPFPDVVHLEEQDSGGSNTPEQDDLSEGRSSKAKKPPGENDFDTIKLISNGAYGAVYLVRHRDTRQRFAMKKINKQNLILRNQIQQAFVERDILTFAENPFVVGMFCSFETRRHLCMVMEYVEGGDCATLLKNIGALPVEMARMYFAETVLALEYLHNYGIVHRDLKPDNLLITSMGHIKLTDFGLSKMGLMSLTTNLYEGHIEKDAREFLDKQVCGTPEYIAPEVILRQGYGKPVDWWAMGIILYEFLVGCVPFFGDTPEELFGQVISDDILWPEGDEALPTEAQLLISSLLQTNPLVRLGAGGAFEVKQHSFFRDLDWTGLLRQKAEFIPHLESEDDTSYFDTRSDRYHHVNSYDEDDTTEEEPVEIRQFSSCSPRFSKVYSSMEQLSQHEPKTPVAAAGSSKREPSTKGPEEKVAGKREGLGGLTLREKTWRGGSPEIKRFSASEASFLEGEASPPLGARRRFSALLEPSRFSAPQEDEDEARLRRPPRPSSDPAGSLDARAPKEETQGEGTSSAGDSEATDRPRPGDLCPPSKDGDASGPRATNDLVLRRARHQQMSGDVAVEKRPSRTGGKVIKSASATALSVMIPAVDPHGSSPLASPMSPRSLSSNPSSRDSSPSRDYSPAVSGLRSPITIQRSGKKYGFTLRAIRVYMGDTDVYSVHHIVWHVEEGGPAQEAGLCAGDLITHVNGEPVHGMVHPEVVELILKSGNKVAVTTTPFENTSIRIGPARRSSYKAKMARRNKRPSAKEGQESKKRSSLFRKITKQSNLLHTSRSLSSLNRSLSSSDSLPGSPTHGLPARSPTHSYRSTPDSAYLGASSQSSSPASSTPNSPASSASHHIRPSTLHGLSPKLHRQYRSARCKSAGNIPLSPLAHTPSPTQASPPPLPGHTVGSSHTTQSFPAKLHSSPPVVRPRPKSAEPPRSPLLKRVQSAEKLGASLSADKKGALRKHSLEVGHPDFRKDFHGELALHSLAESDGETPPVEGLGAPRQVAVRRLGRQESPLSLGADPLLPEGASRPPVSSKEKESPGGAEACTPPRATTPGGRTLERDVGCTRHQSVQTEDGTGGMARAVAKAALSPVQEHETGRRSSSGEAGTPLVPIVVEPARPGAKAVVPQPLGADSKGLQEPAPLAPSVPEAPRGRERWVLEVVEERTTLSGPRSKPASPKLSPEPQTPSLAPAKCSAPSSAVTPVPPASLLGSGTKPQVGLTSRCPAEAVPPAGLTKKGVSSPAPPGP

With `Cn1cc(-n2cnc3c(NCc4nc5cc(Cl)c(Cl)cc5[nH]4)nc(N4CCOCC4)nc32)cn1`, the % of control in experiment [1] is -9.12%.
Consider `COCC(=O)NC/C=C/c1ccc2ncnc(Nc3ccc(Oc4ccc(C)nc4)c(C)c3)c2c1` [CP-724714], for which the % of control is 100% in experiment [2] and 88% in [3].
For the molecule `Cc1cc([C@@H](C)Nc2ccccc2C(=O)O)c2nc(N3CCOCC3)cc(=O)n2c1` [AZD-6482], the % of control in experiment [4] stood at 100%.
Consider `CCc1cc(Nc2nccc(-c3c(-c4ccc(OC)c(C(=O)Nc5c(F)cccc5F)c4)nc4ccccn34)n2)c(OC)cc1N1CCC(N2CCN(S(C)(=O)=O)CC2)CC1`, for which, in experiment [5], the % of inhibition was determined as 47%.
Consider `CC[C@@H]1[C@H](F)C(=O)N[C@@H]1COc1nccc2cc(C(N)=O)c(OC)cc12` [ZIMLOVISERTIB], for which the % of inhibition was 3.8% in experiment [6], -14.5% in [7] and 14.8% in experiment [8].
For `COc1cc(Nc2nc(C)cc(-c3cnn4nc(OC)ccc34)n2)cc(C(F)(F)F)c1`, the % of control in experiment [9] came out at 87%.
As to `CN(C)CCOc1ccc(-c2nc(-c3ccncc3)c(-c3ccc4c(c3)CC/C4=N\O)[nH]2)cc1`, in [10], the % of control was 22%.
On to `O[C@H]1CC[C@H](Nc2ncc3nc(Nc4c(F)cc(F)cc4F)n([C@H]4CCOC4)c3n2)CC1`, for which, in experiment [11], the % of control stood at 100%.
On to `Cc1cc(C)cc([C@H]2c3cc(C)ccc3NC(=O)CN2C(=O)c2ccc(Br)s2)c1`, for which the % of activity turned out to be 92.3% in [12] (at 1 µM) and 92.7% in [12] (at 10 µM).
In experiment [13], `CN(C)CCCOc1ccc(-c2cc(NCCCn3cccn3)nc(S(C)(=O)=O)n2)cc1` displayed a dTM below 2 K.
For the molecule `Nc1cnc(N2CCc3cc(S(=O)(=O)Nc4c(F)cc(Cl)cc4F)cc(N4CCCC4=O)c32)nc1` [TP-020n], the values for the % of control in experiment [14] and in experiment [15] were 89% and 78%, respectively.
